Like-named read-outs stand apart in the source and are kept apart here.
Experiments:
[1] = tested on: test plant species; experiment: Post-emergent herbicidal activity test (greenhouse, foliar spray, visual growth reduction); type: in vivo; conditions: post-emergence, 336 h, 140 g ai/ha
Method in brief: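 Seedlings were raised 7-21 d in a greenhouse under a 15 h photoperiod until the first or second true leaf. Each compound, dissolved in acetone:DMSO 97:3 and diluted into a surfactant-containing spray mixture, was then applied at 187 L/ha. Plants were subirrigated, and growth reduction was scored visually at 14 d.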

[2] = ECHCG: barnyardgrass (Echinochloa crus-galli), 14 days after application, read-out: Visual Growth Reduction (%) 14 Days After Application, ECHCG
[3] = IPOHE: ivy-leaf morning glory (Ipomoea hederacea), 14 days after application, read-out: Visual Growth Reduction (%) 14 Days After Application, IPOHE
[4] = KCHSC: kochia (Bassia scoparia), 14 days after application, read-out: Visual Growth Reduction (%) 14 Days After Application, KCHSC
[5] = ORYSA: rice (Oryza sativa), 14 days after application, read-out: Visual Growth Reduction (%) 14 Days After Application, ORYSA
[6] = SETFA: giant foxtail (Setaria faberi), 14 days after application, read-out: Visual Growth Reduction (%) 14 Days After Application, SETFA
[7] = SORVU: grain sorghum (Sorghum vulgare), 14 days after application, read-out: Visual Growth Reduction (%) 14 Days After Application, SORVU
[8] = TRZAS: wheat, spring (Triticum aestivum), 14 days after application, read-out: Visual Growth Reduction (%) 14 Days After Application, TRZAS
[9] = STEME: common chickweed (Stellaria media), 14 days after application, read-out: Visual Growth Reduction (%) 14 Days After Application, STEME
[10] = blackgrass (Alopecurus myosuroides), 14 Days After Application, read-out: Visual Growth Reduction (%) ALOMY
[11] = canada thistle (Cirsium arvense), 14 Days After Application, read-out: Visual Growth Reduction (%) CIRAR
[12] = crabgrass (Digitaria sanguinalis), 14 Days After Application, read-out: Visual Growth Reduction (%) DIGSA
[13] = lambsquarters (Chenopodium album), 14 Days After Application, read-out: Visual Growth Reduction (%) CHEAL
[14] = redroot pigweed (Amaranthus retroflexus), 14 Days After Application, read-out: Visual Growth Reduction (%) AMARE
[15] = wild oat (Avena fatua), 14 Days After Application, read-out: Visual Growth Reduction (%) AVEFA
[16] = yellow nutsedge (Cyperus esculentus), 14 Days After Application, read-out: Visual Growth Reduction (%) CYPES

Row | SMILES | pest or weed control at 140 g/ha [1, 2] [%] | pest or weed control at 140 g/ha [1, 3] [%] | pest or weed control at 140 g/ha [1, 4] [%] | pest or weed control at 140 g/ha [1, 5] [%] | pest or weed control at 140 g/ha [1, 6] [%] | pest or weed control at 140 g/ha [1, 7] [%] | pest or weed control at 140 g/ha [1, 8] [%] | pest or weed control at 140 g/ha [1, 9] [%] | pest or weed control at 140 g/ha [1, 10] [%] | pest or weed control at 140 g/ha [1, 11] [%] | pest or weed control at 140 g/ha [1, 12] [%] | pest or weed control at 140 g/ha [1, 13] [%] | pest or weed control at 140 g/ha [1, 14] [%] | pest or weed control at 140 g/ha [1, 15] [%] | pest or weed control at 140 g/ha [1, 16] [%] | other results
1 | COC(=O)c1nc(-c2ccc(C(F)(F)F)cc2Cl)cc(F)c1Cl [F109, methyl 3-chloro-6-(2-chloro-4-(trifluoromethyl)phenyl)-4-fluoropicolinate] | 0 to 29 | 0 to 29 | 0 to 29 | 0 to 29 | 0 to 29 | 0 to 29 | 0 to 29 |  |  |  |  |  |  |  |  | pest or weed control at 140 g/ha ([1]; ALOMY: blackgrass (Alopecurus myosuroides), 14 days after application, read-out: Visual Growth Reduction (%) 14 Days After Application, ALOMY): 0 to 29%; pest or weed control at 140 g/ha ([1]; AMARE: redroot pigweed (Amaranthus retroflexus), 14 days after application, read-out: Visual Growth Reduction (%) 14 Days After Application, AMARE): 0 to 29%; pest or weed control at 140 g/ha ([1]; AVEFA: wild oat (Avena fatua), 14 days after application, read-out: Visual Growth Reduction (%) 14 Days After Application, AVEFA): 0 to 29%; pest or weed control at 140 g/ha ([1]; CHEAL: lambsquarters (Chenopodium album), 14 days after application, read-out: Visual Growth Reduction (%) 14 Days After Application, CHEAL): 0 to 29%; pest or weed control at 140 g/ha ([1]; CIRAR: canada thistle (Cirsium arvense), 14 days after application, read-out: Visual Growth Reduction (%) 14 Days After Application, CIRAR): 0 to 29%; pest or weed control at 140 g/ha ([1]; CYPES: yellow nutsedge (Cyperus esculentus), 14 days after application, read-out: Visual Growth Reduction (%) 14 Days After Application, CYPES): 0 to 29%; pest or weed control at 140 g/ha ([1]; DIGSA: crabgrass (Digitaria sanguinalis), 14 days after application, read-out: Visual Growth Reduction (%) 14 Days After Application, DIGSA): 0 to 29%; melting point: 127 to 128 °C
2 | COC(=O)c1nc(-c2ccc(C(F)(F)F)cc2OC)c(F)cc1F [F377, Methyl 3,5-difluoro-6-(2-methoxy-4-(trifluoromethyl)phenyl)picolinate] | 60 to 74 | 95 to 100 | 60 to 74 | 0 to 29 | 75 to 84 | 85 to 94 | 0 to 29 | 0 to 29 | 0 to 29 | 75 to 84 | 60 to 74 | 85 to 94 | 95 to 100 | 30 to 44 | 60 to 74 | 
3 | COC(=O)c1nc(-c2ccc(C#N)cc2F)c(F)cc1Cl [F378, Methyl 3-chloro-6-(4-cyano-2-fluorophenyl)-5-fluoropicolinate] | 0 to 29 | 95 to 100 | 45 to 59 | 0 to 29 | 60 to 74 | 75 to 84 | 0 to 29 | 0 to 29 | 0 to 29 | 45 to 59 | 60 to 74 | 75 to 84 | 45 to 59 | 0 to 29 | 0 to 29 | 
4 | O=C(OCc1ccccc1C(F)(F)F)c1nc(-c2ccc(C(F)(F)F)cc2Cl)ccc1Cl [F380, 2-(Trifluoromethyl) benzyl 3-chloro-6-(2-chloro-4-(trifluoromethyl)phenyl)picolinate] | 75 to 84 | 95 to 100 | 75 to 84 | 0 to 29 | 95 to 100 | 95 to 100 | 60 to 74 | 0 to 29 | 45 to 59 | 85 to 94 | 95 to 100 | 95 to 100 | 95 to 100 | 60 to 74 | 0 to 29 | 
5 | C=C(C)COC(=O)c1nc(-c2ccc(C(F)(F)F)cc2Cl)ccc1Cl [F381, 2-Methylallyl 3-chloro-6-(2-chloro-4-(trifluoromethyl)phenyl)picolinate] | 85 to 94 | 95 to 100 | 95 to 100 | 0 to 29 | 85 to 94 | 85 to 94 | 60 to 74 | 0 to 29 | 45 to 59 | 85 to 94 | 85 to 94 | 95 to 100 | 85 to 94 | 45 to 59 | 0 to 29 | 
